Results taken from EP1175907A1, “REMEDIES” (Takara Shuzo Co, Ltd., priority 1999, dated 2000).
Where “and” joins values, the source holds several entries; their conditions need not be identical. Equal entries are not always repeated.

How the values were obtained:
MRC-5 cells [1] = experiment: induction action for HGF production in MRC-5 cells (HGF ELISA of medium); format: cell-based, Human; conditions: 24 h, control = 100%
Protocol: (1) Five-hundred microliters each of MRC-5 cells (CCL171: manufactured by DAINIPPON PHARMACEUTICAL CO., LTD., code. 02-021) suspended in a DME medium containing 10% fetal bovine serum so as to have a concentration of 1 × 10^5 cells/ml were added into each well of a 48-well cell culture plate. The cells were cultured at 37°C for 24 hours in the presence of 5% CO2, and then the medium was exchanged for a DME medium containing 1% fetal bovine serum. […] The medium was then collected, and by using Quantikine Human Hepatocyte Growth Factor (HGF) ELISA Kit (manufactured by Funakoshi, Code. RS-0641-00), the amount of HGF in the medium was determined.
As a control, distilled water was added in the same volume as that of the sample. The amount of HGF of the control was 7.2 ng/ml. The amount of HGF produced in each sample-added group is shown in Table 1, assuming that the value of the control is 100%. Each experiment was carried out twice, and its average value was taken.

MRC-5 cells [2] = experiment: HGF production in MRC-5 cells with cycloheximide (protein synthesis inhibitor); format: cell-based, Human; conditions: for Amount of HGF Produced (in Medium): control = 100%
Protocol: (1) Five-hundred microliters of a solution containing MRC-5 cells suspended in a DME medium containing 10% fetal bovine serum so as to have a concentration of 1 × 10^5 cells/ml were added into each well of a 48-well cell culture plate. The cells were cultured at 37°C for 24 hours in the presence of 5% CO2, and then the medium was exchanged for a DME medium containing 1% fetal bovine serum. Thereafter, cycloheximide (protein synthesis inhibitor: manufactured by nacalaitesque) was added thereto so as to have a final concentration of 0, 1, or 10 µg/ml, and a sample to be analyzed was further added thereto. Thereafter, the cells were cultured for 24 hours. This medium was collected, and the amount of HGF in the medium was determined by using the HGF ELISA Kit. The fucoidan derived from Kjellmaniella crassifolia described in item (1) of Reference Example 1 was added so as to have a final concentration of 1, 10 or 100 µg/ml. As a control, distilled water was added in the same volume as that of the sample. Each experiment was carried out twice, and an average value was taken. In Table 50, the amount of HGF produced of the control was regarded as 100%.
(2) Five-hundred microliters of MRC-5 cells (CCL171: manufactured by DAINIPPON PHARMACEUTICAL CO., LTD., code. 02-021) suspended in a DME medium containing 10% fetal bovine serum so as to have a concentration of 1 × 10^5 cells/ml were added into each well of a 48-well cell culture plate. The cells were cultured at 37°C for 24 hours in the presence of 5% CO2, and then the medium was exchanged for a DME medium containing 1% fetal bovine serum. Thereafter, cycloheximide (protein synthesis inhibitor: manufactured by nacalaitesque) was added thereto so as to have a final concentration of 0, 1, or 10 µg/ml, and a sample to be analyzed was further added thereto. The cells were then cultured for 24 hours. This medium was collected, and the amount of HGF in the medium was determined by using Quantikine Human Hepatocyte Growth Factor (HGF) ELISA Kit (manufactured by Funakoshi, Code. RS-0641-00). In addition, the cells were washed with PBS, and thereafter dissolved in 500 µl of a cytolytic buffer (50 mM HEPES, pH 7.4; 10 mM EDTA, 0.1% Triton x 100; 1 mM PMSF; 1 µg/ml pepstatin A and 1 µg/ml leupeptin). Further, in order to completely dissolve the cells, the mixture was subjected to sonication treatment, and then centrifuged, to give a supernatant (cell extract). The amount of HGF in the cell was determined in the same manner as that of the concentration of HGF in the medium. As to the amount of HGF produced, negative control was regarded as 100%. As to the inhibitory ratio, the inhibitory ratio (%) in the cycloheximide-added fraction was calculated on the basis of the amount of HGF produced when 7-12SFd-F was added alone at each concentration. 7-12SFd-F was added so as to have a final concentration of 1, 10 or 100 µg/ml. As the negative control, distilled water was added in the same volume as that of the sample. Each experiment was carried out three times, and an average value was taken. […] It was clarified from these findings that protein synthesis was involved in the induction of HGF production by 7-12SFd-F, not simply freeing of HGF from the cells.

Compound | Amount of HGF Produced (MRC-5 cells [1]; sample 10 µg/ml) [%] | Amount of HGF Produced (MRC-5 cells [1]; sample 100 µg/ml) [%] | Amount of HGF Produced (MRC-5 cells [1]; sample 1000 µg/ml) [%] | Amount of HGF Produced (MRC-5 cells [1]; sample 1 µg/ml) [%] | also measured
sodium salt of sulfated cellobiose | 100 | 143 | 546 |  | 
sodium salt of sulfated D-(+)-galactose [Sodium Salt of Sulfated Galactose] |  | 166 |  |  | 
sodium salt of sulfated 2-deoxy-glucose | 127 | 102 | 239 |  | 
sodium salt of sulfated lactulose | 139 | 376 | 583 |  | 
sodium salt of sulfated maltohexaose | 407 | 571 | 761 |  | 
sodium salt of sulfated D-talose [Sodium Salt of Sulfated Talose] | 112 | 263 | 494 |  | 
sodium salt of sulfated maltotriose | 286 | 387 |  | 151 | 
sodium salt of sulfated palatinose | 132 | 278 | 519 |  | 
sodium salt of sulfated trehalose | 447 | 421 |  | 277 | 
sodium salt of sulfated lactose | 185 | 410 |  | 118 | 
sodium salt of sulfated melibiose | 240 | 403 | 667 |  | 
sodium salt of sulfated maltose | 273 | 439 |  | 142 | 
sodium salt of sulfated D-(+)-glucose [Sodium Salt of Sulfated Glucose] | 377 | 864 |  | 178 | 
sodium salt of sulfated dodecyl-maltohexaose | 289 | 371 | 359 |  | 
sodium salt of sulfated D-glucitol [Sodium Salt of Sulfated Glucitol] | 112 | 203 | 335 |  | 
sodium salt of sulfated turanose | 127 | 203 | 379 |  | 
sodium salt of sulfated maltoheptaose | 341 | 486 | 706 |  | 
sodium salt of sulfated D-(+)- mannose [Sodium Salt of Sulfated Mannose] | 175 | 456 |  | 112 | 
sodium salt of sulfated sucrose | 355 | 501 |  | 173 | 
sodium salt of sulfated D-(+)- xylose [Sodium Salt of Sulfated Xylose] | 110 | 112 | 284 |  | 
sodium salt of sulfated isomaltose | 134 | 301 | 477 |  | 
C[C@@H]1C[C@@H]([C@H](O)CC2CC(=O)NC(=O)C2)C(=O)[C@@H](C)C1 [Cycloheximide, cycloheximide] |  |  |  |  | Amount of HGF Produced (Total in Cells and in Medium) (MRC-5 cells [2]; Cycloheximide 1 µg/ml alone): 31%; Inhibitory Ratio Where Cycloheximide Non-Added Group Was Regarded as 100% (Total in Cells and in Medium) (MRC-5 cells [2]; Cycloheximide 1 µg/ml alone): 69%; Inhibitory Ratio Where Cycloheximide Non-Added Group Was Regarded as 100% (in Medium) (MRC-5 cells [2]; Cycloheximide 1 µg/ml alone): 60%; Amount of HGF Produced (in Medium) (MRC-5 cells [2]; Cycloheximide 1 µg/ml alone): 35% and 40%; Amount of HGF Produced (Total in Cells and in Medium) (MRC-5 cells [2]; Cycloheximide 10 µg/ml alone): 27%; Inhibitory Ratio Where Cycloheximide Non-Added Group Was Regarded as 100% (Total in Cells and in Medium) (MRC-5 cells [2]; Cycloheximide 10 µg/ml alone): 73%; Inhibitory Ratio Where Cycloheximide Non-Added Group Was Regarded as 100% (in Medium) (MRC-5 cells [2]; Cycloheximide 10 µg/ml alone): 60%; Amount of HGF Produced (in Medium) (MRC-5 cells [2]; Cycloheximide 10 µg/ml alone): 27% and 40%
